# Experimental data from the C3SDB collision cross section collection.
# Legend:
# [1] = instrument: DT, single field, calibrated with Agilent tune mix (Agilent)
# [2] = instrument: DT, stepped-field
structure (smiles),measurement,setting,value
CCCCCCCCCCCCCCCCC(=O)N[C@@H](CO)[C@H](O)CCCCCCCCCCCCCCC [Cer(35:0)],collision cross section (N2),[1]; [M+H]+,258.6 Å²
CCCCCCCCCCCCC=CC[C@@H](O)[C@H](CO)NC(=O)CCCCCCCCCCCCCCCC [Cer(35:1)],collision cross section (N2),[1]; [M+H]+,256.3 Å²
CCCCCCCCCCCCC=CC[C@@H](O)[C@H](CO)NC(=O)CC=CCCCCCCCCCCCCCC [Cer(36:2)],collision cross section (N2),[1]; [M+H]+,255.4 Å²
CCCCCCCCCCCCC=CC[C@@H](O)[C@H](CO)NC(=O)CCCCCCCCCCCCCCCCCCC [Cer(38:1)],collision cross section (N2),[1]; [M+HCOO]-,263.4 Å²
same,collision cross section (N2),[1]; [M+H]+,267.3 Å²
same,collision cross section (N2),[1]; [M+Na]+,273.1 Å²
CCCCCCCCCCCCC=CC[C@@H](O)[C@H](CO)NC(=O)CCCCCCCCCCCCCCCCCCCC [Cer(39:1)],collision cross section (N2),[1]; [M+H]+,269 Å²
CCCCCCCCCCCCC=CC[C@@H](O)[C@H](CO)NC(=O)CCCCCCCCCCCCCCCCCCCCC [Cer(40:1)],collision cross section (N2),[1]; [M+HCOO]-,269.4 Å²
same,collision cross section (N2),[1]; [M+H]+,272.3 Å²
CCCCCCCCCCCCC=CC[C@@H](O)[C@H](CO)NC(=O)CCCCCCCCCCCCCCCCCCCCCC [Cer(41:1)],collision cross section (N2),[1]; [M+H]+,275.6 Å²
same,collision cross section (N2),[1]; [M+Na]+,281.6 Å²
CCCCCCCCCCCCC=CC[C@@H](O)[C@H](CO)NC(=O)CCCCCCCCCCCCCCCCCCCCCCC [Cer(42:1)],collision cross section (N2),[1]; [M+H]+,279.3 Å²
same,collision cross section (N2),[1]; [M-H]-,267.7 Å²
CCCCCCCCCCCCC=CC[C@@H](O)[C@H](CO)NC(=O)CC=CCCCCCCCCCCCCCCCCCCCC [Cer(42:2)],collision cross section (N2),[1]; [M+HCOO]-,274.4 Å²
same,collision cross section (N2),[1]; [M+Na]+,278.8 Å²
same,collision cross section (N2),[1]; [M-H]-,266.1 Å²
CCCCCCCCCCCCC=CC[C@@H](O)[C@H](CO[C@@H]1O[C@H](CO)[C@@H](O)C(O)C1O)NC(=O)CCCCCCCCCCCCCCCCCCCCCCCCC (stereo partly specified) [GlcCer(44:1)],collision cross section (N2),[1]; [M+H]+,307.2 Å²
same,collision cross section (N2),[1]; [M+Na]+,308.7 Å²
CCCCC/C=C\C/C=C\C/C=C\C/C=C\CCCCCC(=O)O[C@H](COC(=O)CCCC/C=C\C/C=C\C/C=C\CCCCC)COP(=O)(O)OCCN [PE(40:07)],collision cross section (N2),[2]; [M+2Na-H]+,286.07 Å²
CC/C=C\C/C=C\C/C=C\C/C=C\C/C=C\C/C=C\CCC(=O)O[C@H](COC(=O)CCCCCCCCC/C=C\CCCCCCCC)COP(=O)(O)OCCN [PE(42:07)],collision cross section (N2),[2]; [M+K]+,291.12 Å²
CCCCC/C=C\C/C=C\C/C=C\CCCCC(=O)O[C@H](COCCCCCCCCCCCCCCCC)COP(=O)(O)OCCN [PE(o34:03)],collision cross section (N2),[2]; [M+2Na-H]+,271.58 Å²
same,collision cross section (N2),[2]; [M+Na]+,270.85 Å²
CCCCC/C=C\C/C=C\CCCCCCCC(=O)O[C@H](COCCCCCCCCCCCCCCCCCCCC)COP(=O)(O)OCCN [PE(o38:02)],collision cross section (N2),[2]; [M+2Na-H]+,289.33 Å²
CCCCC/C=C\C/C=C\C/C=C\CCCCC(=O)O[C@H](COCCCCCCCCCCCCCCCCCCCC)COP(=O)(O)OCCN [PE(o38:03)],collision cross section (N2),[2]; [M+2Na-H]+,287.42 Å²
same,collision cross section (N2),[2]; [M+Na]+,283.24 Å²
CCCCC/C=C\C/C=C\C/C=C\C/C=C\CCCC(=O)O[C@H](COCCCCCCCCCCCCCCCCCC)COP(=O)(O)OCCN [PE(o38:04)],collision cross section (N2),[2]; [M+2Na-H]+,284.68 Å²
CCCCCCCCCC/C=C\CCCCCCCCCC(=O)O[C@H](COC(=O)CCCCCCCCCCC)COP(=O)(O)OC[C@H](N)C(=O)O [PS(34:01)],collision cross section (N2),[2]; [M+2Na-H]+,280.81 Å²
CCCCCCCCCCCCCCCCCC(=O)OC[C@H](COP(=O)(O)OC[C@H](N)C(=O)O)OC(=O)CCCCCCCCCCCCCCCCC [PS(36:00)],collision cross section (N2),[2]; [M-H]-,284.03 Å²
CCCCCCCCCC/C=C\CCCCCCCCCC(=O)O[C@H](COC(=O)CCCCCCCCCCCCCC)COP(=O)(O)OC[C@H](N)C(=O)O [PS(37:01)],collision cross section (N2),[2]; [M+2Na-H]+,293.47 Å²
CCCCC/C=C\C/C=C\CCCCCCCCCCCC(=O)O[C@H](COC(=O)CCCCCCCCCCCCCC)COP(=O)(O)OC[C@H](N)C(=O)O [PS(37:02)],collision cross section (N2),[2]; [M+2Na-H]+,289.29 Å²
CCCCC/C=C\C/C=C\C/C=C\CCCCCCC(=O)O[C@H](COC(=O)CCCCCCC/C=C\CCCCCCC)COP(=O)(O)OC[C@H](N)C(=O)O [PS(37:04)],collision cross section (N2),[2]; [M+2Na-H]+,285.85 Å²
CCCCC/C=C\C/C=C\C/C=C\CCCCCCC(=O)O[C@H](COC(=O)CCCCCCC/C=C\CCCCCCCC)COP(=O)(O)OC[C@H](N)C(=O)O [PS(38:04)],collision cross section (N2),[2]; [M+2Na-H]+,288.75 Å²
same,collision cross section (N2),[2]; [M+H]+,284.44 Å²
same,collision cross section (N2),[2]; [M+K]+,289.37 Å²
same,collision cross section (N2),[2]; [M-H]-,285.11 Å²
CCCCC/C=C\C/C=C\C/C=C\CCCCCCC(=O)O[C@H](COC(=O)CCCCCCC/C=C\C/C=C\CCCCC)COP(=O)(O)OC[C@H](N)C(=O)O [PS(38:05)],collision cross section (N2),[2]; [M+2Na-H]+,285.68 Å²
same,collision cross section (N2),[2]; [M+H]+,281.67 Å²
same,collision cross section (N2),[2]; [M+K]+,286.6 Å²
same,collision cross section (N2),[2]; [M-H]-,283.69 Å²
CC/C=C\C/C=C\C/C=C\C/C=C\C/C=C\C/C=C\CCC(=O)OC[C@H](COP(=O)(O)OC[C@H](N)C(=O)O)OC(=O)CCCCCCCCCCCCCCCCCC [PS(41:06)],collision cross section (N2),[2]; [M+2Na-H]+,296.18 Å²
CCCCC/C=C\C/C=C\C/C=C\C/C=C\CCCCCC(=O)O[C@H](COC(=O)CCCCCCCCC/C=C\C/C=C\CCCCC)COP(=O)(O)OC[C@H](N)C(=O)O [PS(42:06)],collision cross section (N2),[2]; [M+2Na-H]+,297.48 Å²
CCCCC/C=C\C/C=C\C/C=C\C/C=C\CCCCCC(=O)O[C@H](COC(=O)CCC/C=C\C/C=C\C/C=C\C/C=C\CCCCC)COP(=O)(O)OC[C@H](N)C(=O)O [PS(42:08)],collision cross section (N2),[2]; [M+2Na-H]+,295.25 Å²
same,collision cross section (N2),[2]; [M-H]-,291.98 Å²
CC/C=C\C/C=C\C/C=C\C/C=C\C/C=C\CCCC(=O)OC[C@H](COP(=O)(O)OC[C@H](N)C(=O)O)OC(=O)CCCCC/C=C\C/C=C\C/C=C\C/C=C\CCCCC [PS(42:09)],collision cross section (N2),[2]; [M+2Na-H]+,292.63 Å²
same,collision cross section (N2),[2]; [M+K]+,294.57 Å²
same,collision cross section (N2),[2]; [M-H]-,290.63 Å²
CCCCCCCCCCCCC=CC[C@@H](O)[C@H](COP(=O)([O-])OCC[N+](C)(C)C)NC(=O)CCCCCCCCCCCCCCCC [SM(35:01)],collision cross section (N2),[2]; [M+Na]+,280.61 Å²
CCCCCCCCCCCCC=CC[C@@H](O)[C@H](COP(=O)([O-])OCC[N+](C)(C)C)NC(=O)CCCCCCCCCCCCCCCCCC [SM(37:01)],collision cross section (N2),[2]; [M+H]+,288.67 Å²
same,collision cross section (N2),[2]; [M+Na]+,285.35 Å²
CCCCCCCCCCCCCCCCCCCC(=O)N[C@@H](COP(=O)([O-])OCC[N+](C)(C)C)[C@H](O)CCCCCCCCCCCCCCC [SM(38:00)],collision cross section (N2),[2]; [M+2Na-H]+,294.68 Å²
CCCCCCCCCCCCC=CC[C@@H](O)[C@H](COP(=O)([O-])OCC[N+](C)(C)C)NC(=O)CCCCCCCCCCCCCCCCCCC [SM(38:01)],collision cross section (N2),[2]; [M+Cl]-,294.7 Å²
same,collision cross section (N2),[2]; [M+HCOO]-,296.3 Å²
same,collision cross section (N2),[2]; [M+H]+,292.26 Å²
same,collision cross section (N2),[2]; [M+Na]+,292.18 Å²
CCCCCCCCCCCCC=CC[C@@H](O)[C@H](COP(=O)([O-])OCC[N+](C)(C)C)NC(=O)CCCCCCCCCCCCCCCCCCCC [SM(39:01)],collision cross section (N2),[2]; [M+H]+,295.85 Å²
same,collision cross section (N2),[2]; [M+Na]+,294.58 Å²
CCCCCCCCCCCCC=CC[C@@H](O)[C@H](COP(=O)([O-])OCC[N+](C)(C)C)NC(=O)CCCCCCCCCCCCCCCCCCCCCC [SM(41:01)],collision cross section (N2),[2]; [M+H]+,301.14 Å²
same,collision cross section (N2),[2]; [M+Na]+,299.31 Å²
CCCCCCCCCCCCC=CC[C@@H](O)[C@H](COP(=O)([O-])OCC[N+](C)(C)C)NC(=O)CCCCCCCCCCCCCCCCCCCCCCC [SM(42:01)],collision cross section (N2),[2]; [M+Cl]-,305.77 Å²
same,collision cross section (N2),[2]; [M+HCOO]-,306.96 Å²
same,collision cross section (N2),[2]; [M+H]+,303.17 Å²
same,collision cross section (N2),[2]; [M+Na]+,302.6 Å²
CCCCCCCCCCCCC=CC[C@@H](O)[C@H](COP(=O)([O-])OCC[N+](C)(C)C)NC(=O)CC=CCCCCCCCCCCCCCCCCCCCC [SM(42:02)],collision cross section (N2),[2]; [M+Cl]-,304.71 Å²
same,collision cross section (N2),[2]; [M+HCOO]-,305.63 Å²
same,collision cross section (N2),[2]; [M+H]+,301.43 Å²
same,collision cross section (N2),[2]; [M+Na-H2O]+,301.19 Å²
same,collision cross section (N2),[2]; [M+Na]+,300.53 Å²
CCCCCCCCCCCCC=CC[C@@H](O)[C@H](COP(=O)([O-])OCC[N+](C)(C)C)NC(=O)CC=CCC=CCC=CCCCCCCCCCCCCCC [SM(42:04)],collision cross section (N2),[2]; [M+H]+,297.81 Å²
CCCCCCCCCCCCC=CC[C@@H](O)[C@H](COP(=O)([O-])OCC[N+](C)(C)C)NC(=O)CCCCCCCCCCCCCCCCCCCCCCCCC [SM(44:01)],collision cross section (N2),[2]; [M+H]+,309.76 Å²
same,collision cross section (N2),[2]; [M+Na]+,307.86 Å²
CCCCCCCCCCCCC=CC[C@@H](O)[C@H](COP(=O)([O-])OCC[N+](C)(C)C)NC(=O)CC=CCC=CCCCCCCCCCCCCCCCCCCC [SM(44:03)],collision cross section (N2),[2]; [M+Na]+,304.66 Å²
